pEC50, pIC50: −log10 of the molar value.
Assays:
HBV = assay: Determination of HBV DNA from the supernatants of HepAD38 cells (anti-HBV activity); type: cell-based, hepatitis B virus; details: Hepatitis B virus, 144 h; HBV DNA in HepAD38 supernatant at day 6; read-out: Cell Activity (EC50)
Method in brief: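 EC50 values were obtained by non-linear regression of HBV DNA copy numbers measured by qPCR against pCH-9/3091 plasmid standards. The DNA came from filtered supernatants collected on day 6. Before that, tetracycline-withdrawn HepAD38 cells had been exposed to serial half-log compound dilutions, with tetracycline-treated cells as the non-producing control.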

HBV core protein = HBV core protein (UniProt P03146); type: biochemical; details: read-out: Assembly Activity (IC50); BODIPY-FL labelled core protein, assembly started with NaCl, read after 6 min
Method in brief: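 Compounds tested at 8 concentrations in 0.5-log steps from 100, 31.6 or 10 μM against 1.0–2.0 μM BODIPY-FL-labelled Cys150 core dimers (residues 1–149), 50 mM HEPES pH 7.5. NaCl ([…] final) triggered assembly; quenching read at 6 min, 477/525 nm, with 2.5 M and 0 M NaCl as controls; EC50 by nonlinear fit.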

Sequence of HBV core protein (P03146 whole entry, looked up, the tested form may be a part): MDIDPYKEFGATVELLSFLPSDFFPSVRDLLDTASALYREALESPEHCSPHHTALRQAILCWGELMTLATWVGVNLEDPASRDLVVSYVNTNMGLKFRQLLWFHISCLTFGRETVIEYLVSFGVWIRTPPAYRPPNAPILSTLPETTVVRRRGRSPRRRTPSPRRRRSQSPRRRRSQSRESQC

| Compound | pEC50 (HBV) | pIC50 (HBV core protein) |
| --- | --- | --- |
| O=C(c1cc2c(F)ccc(F)c2[nH]1)N1CCc2nc(NC3CCOC3)sc2C1 (centres unmarked) [Example 132, 5-(4,7-difluoro-1H-indole-2-carbonyl)-N-(oxolan-3-yl)-4H,5H,6H,7H-[1,3]thiazolo[5,4-c]pyridin-2-amine] | > 6.00 | > 5.30 |
| CN(C)c1nc2c(s1)CN(C(=O)c1cc3c(F)ccc(F)c3[nH]1)CC2 [Example 133, 5-(4,7-difluoro-1H-indole-2-carbonyl)-N,N-dimethyl-4H,5H,6H,7H-[1,3]thiazolo[5,4-c]pyridin-2-amine] | 5.00 to 6.00 | > 4.00 |
| Cc1c(Cl)ccc2cc(C(=O)N3CCc4nc(N)sc4C3)[nH]c12 [Example 134, 5-(6-chloro-7-methyl-1H-indole-2-carbonyl)-4H,5H,6H,7H-[1,3]thiazolo[5,4-c]pyridin-2-amine] | > 6.00 | > 5.30 |
| Nc1nc2c(s1)CN(C(=O)c1cc3cc(Cl)c(Cl)cc3[nH]1)CC2 [Example 135, 5-(5,6-dichloro-1H-indole-2-carbonyl)-4H,5H,6H,7H-[1,3]thiazolo[5,4-c]pyridin-2-amine] | 5.00 to 6.00 | 5.00 to 5.30 |
| Cc1ccc2[nH]c(C(=O)N3CCc4nc(N)sc4C3)cc2c1C [Example 136, 5-(4,5-dimethyl-1H-indole-2-carbonyl)-4H,5H,6H,7H-[1,3]thiazolo[5,4-c]pyridin-2-amine] | 5.00 to 6.00 | 5.00 to 5.30 |
| Cc1cc(C)c2[nH]c(C(=O)N3CCc4nc(N)sc4C3)cc2c1 [Example 137, 5-(5,7-dimethyl-1H-indole-2-carbonyl)-4H,5H,6H,7H-[1,3]thiazolo[5,4-c]pyridin-2-amine] | > 4.00 | > 4.00 |
| Cc1cc(C)c2cc(C(=O)N3CCc4nc(N)sc4C3)[nH]c2c1 [Example 138, 5-(4,6-dimethyl-1H-indole-2-carbonyl)-4H,5H,6H,7H-[1,3]thiazolo[5,4-c]pyridin-2-amine] | 5.00 to 6.00 | > 5.30 |
| Cc1cc(Cl)cc2cc(C(=O)N3CCc4nc(N)sc4C3)[nH]c12 [Example 139, 5-(5-chloro-7-methyl-1H-indole-2-carbonyl)-4H,5H,6H,7H-[1,3]thiazolo[5,4-c]pyridin-2-amine] | > 4.00 | > 4.00 |
| O=C(c1cc2c(Cl)cc(F)cc2[nH]1)N1CCc2nc(NC3CCOC3)sc2C1 (centres unmarked) [Example 140, 5-(4-chloro-6-fluoro-1H-indole-2-carbonyl)-N-(oxolan-3-yl)-4H,5H,6H,7H-[1,3]thiazolo[5,4-c]pyridin-2-amine] | > 6.00 | > 5.30 |
| O=C(c1cc2ccccc2[nH]1)N1CCc2nc(O)sc2C1 [Example 141, 5-(1H-indole-2-carbonyl)-4H,5H,6H,7H-[1,3]thiazolo[5,4-c]pyridin-2-ol] | 5.00 to 6.00 | > 4.00 |
| CC(O)CNc1nc2c(s1)CN(C(=O)c1cc3c(Cl)cc(F)cc3[nH]1)CC2 (centres unmarked) [Example 142, 1-{[5-(4-chloro-6-fluoro-1H-indole-2-carbonyl)-4H,5H,6H,7H-[1,3]thiazolo[5,4-c]pyridin-2-yl]amino}propan-2-ol] | > 6.00 | > 5.30 |
| Nc1nc2c(s1)CN(C(=O)c1cc3c(F)cc(Br)cc3[nH]1)CC2 [Example 143, 5-(6-bromo-4-fluoro-1H-indole-2-carbonyl)-4H,5H,6H,7H-[1,3]thiazolo[5,4-c]pyridin-2-amine] | > 6.00 | > 5.30 |
| CC(O)CNc1nc2c(s1)CN(C(=O)c1cc3c(F)ccc(F)c3[nH]1)CC2 (centres unmarked) [Example 144, 1-{[5-(4,7-difluoro-1H-indole-2-carbonyl)-4H,5H,6H,7H-[1,3]thiazolo[5,4-c]pyridin-2-yl]amino}propan-2-ol] | > 6.00 | > 5.30 |
| Nc1nc2c(s1)CN(C(=O)c1cc3c([N+](=O)[O-])cccc3[nH]1)CC2 [Example 145, 5-(4-nitro-1H-indole-2-carbonyl)-4H,5H,6H,7H-[1,3]thiazolo[5,4-c]pyridin-2-amine] | > 6.00 | > 5.30 |
| Nc1nc2c(s1)CN(C(=O)c1cc3c(C(F)(F)F)cccc3[nH]1)CC2 [Example 146, 5-(4-(trifluoromethyl)-1H-indole-2-carbonyl)-4H,5H,6H,7H-[1,3]thiazolo[5,4-c]pyridin-2-amine] | > 6.00 | > 5.30 |
| Nc1nc2c(s1)CN(C(=O)c1cc3c(F)cc(Cl)cc3[nH]1)CC2 [Example 147, 5-(6-chloro-4-fluoro-1H-indole-2-carbonyl)-4H,5H,6H,7H-[1,3]thiazolo[5,4-c]pyridin-2-amine] | > 6.00 | > 5.30 |
| Nc1nc2c(s1)CN(C(=O)c1cc3ccc(Cl)c(Cl)c3[nH]1)CC2 [Example 148, 5-(6,7-dichloro-1H-indole-2-carbonyl)-4H,5H,6H,7H-[1,3]thiazolo[5,4-c]pyridin-2-amine] | 5.00 to 6.00 | > 5.30 |
| Cc1cccc2[nH]c(C(=O)N3CCc4nc(N)sc4C3)cc12 [Example 149, 5-(4-methyl-1H-indole-2-carbonyl)-41H,5H,6H,7H-[1,3]thiazolo[5,4-c]pyridin-2-amine] | 5.00 to 6.00 | > 5.30 |
| Cc1ccc2cc(C(=O)N3CCc4nc(N)sc4C3)[nH]c2c1 [Example 150, 5-(6-methyl-1H-indole-2-carbonyl)-4H,5H,6H,7H-[1,3]thiazolo[5,4-c]pyridin-2-amine] | > 6.00 | > 5.30 |

| Compound | pEC50 (HBV) | pIC50 (HBV core protein) |
| --- | --- | --- |
| COc1nc2c(s1)CN(C(=O)c1cc3ccccc3[nH]1)CC2 [Example 151, 2-{2-methoxy-4H,5H,6H,7H-[1,3]thiazolo[5,4-c]pyridine-5-carbonyl}-1H-indole] | 5.00 to 6.00 | > 4.00 |
| CCOc1nc2c(s1)CN(C(=O)c1cc3ccccc3[nH]1)CC2 [Example 152, 2-{2-ethoxy-4H,5H,6H,7H-[1,3]thiazolo[5,4-c]pyridine-5-carbonyl}-1H-indole] | 5.00 to 6.00 | > 4.00 |
| COc1cccc2cc(C(=O)N3CCc4nc(N)sc4C3)[nH]c12 [Example 153, 5-(7-methoxy-1H-indole-2-carbonyl)-4H,5H,6H,7H-[1,3]thiazolo[5,4-c]pyridin-2-amine] | > 4.00 | > 4.00 |
| Nc1nc2c(s1)CN(C(=O)c1cc3cccc(Cl)c3[nH]1)CC2 [Example 154, 5-(7-chloro-1H-indole-2-carbonyl)-4H,5H,6H,7H-[1,3]thiazolo[5,4-c]pyridin-2-amine] | > 6.00 | > 5.30 |
| Nc1nc2c(s1)CN(C(=O)c1cc3cc(Cl)ccc3[nH]1)CC2 [Example 155, 5-(5-chloro-1H-indole-2-carbonyl)-4H,5H,6H,7H-[1,3]thiazolo[5,4-c]pyridin-2-amine] | 5.00 to 6.00 | > 5.30 |
| Nc1nc2c(s1)CN(C(=O)c1cc3ccc(Cl)cc3[nH]1)CC2 [Example 156, 5-(6-chloro-1H-indole-2-carbonyl)-4H,5H,6H,7H-[1,3]thiazolo[5,4-c]pyridin-2-amine] | > 6.00 | > 5.30 |
| O=C(c1cc2ccccc2[nH]1)N1CCc2nc(NCCO)sc2C1 [Example 157, 2-{[5-(1H-indole-2-carbonyl)-4H,5H,6H,7H-[1,3]thiazolo[5,4-c]pyridin-2-yl]amino}ethan-1-ol] | > 6.00 | > 5.30 |
| O=C(c1cc2ccccc2[nH]1)N1CCc2nc(OCc3ccccc3)sc2C1 [Example 158, 2-[2-(benzyloxy)-4H,5H,6H,7H-[1,3]thiazolo[5,4-c]pyridine-5-carbonyl]-1H-indole] | 5.00 to 6.00 | > 4.00 |
| Nc1nc2c(s1)CN(C(=O)c1cc3cc(F)c(F)cc3[nH]1)CC2 [Example 159, 5-(5,6-difluoro-1H-indole-2-carbonyl)-4H,5H,6H,7H-[1,3]thiazolo[5,4-c]pyridin-2-amine] | > 6.00 | > 5.30 |
| Nc1nc2c(s1)CN(C(=O)c1cc3cc(F)cc(F)c3[nH]1)CC2 [Example 160, 5-(5,7-difluoro-1H-indole-2-carbonyl)-4H,5H,6H,7H-[1,3]thiazolo[5,4-c]pyridin-2-amine] | > 6.00 | > 5.30 |
| Cc1nc2c(s1)CN(C(=O)c1cc3cc(Cl)ccc3[nH]1)CC2 [Example 161, 5-chloro-2-{2-methyl-4H,5H,6H,7H-[1,3]thiazolo[5,4-c]pyridine-5-carbonyl}-1H-indole] | 5.00 to 6.00 | 5.00 to 5.30 |
| Cc1nc2c(s1)CN(C(=O)c1cc3ccc(Cl)cc3[nH]1)CC2 [Example 162] | > 6.00 | > 5.30 |
| Cc1nc2c(s1)CN(C(=O)c1cc3cc(F)cc(F)c3[nH]1)CC2 [Example 163] | > 6.00 | > 5.30 |
| Cc1nc2c(s1)CN(C(=O)c1cc3cc(F)c(F)cc3[nH]1)CC2 [Example 164] | > 6.00 | > 5.30 |
| Cc1nc2c(s1)CN(C(=O)c1cc3c(F)cc(Cl)cc3[nH]1)CC2 [Example 165] | 5.00 to 6.00 | > 5.30 |
| O=C(c1cc2ccccc2[nH]1)N1CCc2nc(N3CCOCC3)sc2C1 [Example 166, 2-[2-(morpholin-4-yl)-4H,5H,6H,7H-[1,3]thiazolo[5,4-c]pyridine-5-carbonyl]-1H-indole] | 5.00 to 6.00 | > 4.00 |
| Nc1nc2c(s1)CN(C(=O)c1cc3c(Cl)cc(F)cc3[nH]1)CC2 [Example 167, 5-(4-chloro-6-fluoro-1H-indole-2-carbonyl)-4H,5H,6H,7H-[1,3]thiazolo[5,4-c]pyridin-2-amine] | > 6.00 | > 5.30 |
| Nc1nc2c(s1)CN(C(=O)c1cc3c(Cl)cc(Cl)cc3[nH]1)CC2 [Example 168, 5-(4,6-dichloro-1H-indole-2-carbonyl)-4H,5H,6H,7H-[1,3]thiazolo[5,4-c]pyridin-2-amine] | > 6.00 | > 5.30 |

Reference: patent US11267825B2 (AICURIS GMBH & CO. KG, priority 2017, dated 2022)
